Source: patent publication US7851632B2, “Biphenyl compounds useful as muscarinic receptor antagonists” (Theravance, Inc., priority 2004, dated 2010)

Test system: ACh-induced bronchoconstriction
Test: Duration of bronchoprotection in guinea pig model of acetylcholine-induced bronchoconstriction
Assay type: in vivo
Conditions: inhalation, 1.5 hours post-dose
Experimental: Determination of Duration of Bronchoprotection in Guinea Pig Model of Acetylcholine-Induced Bronchoconstriction
Groups of six male guinea pigs (Duncan-Hartley (HsdPoc:DH) Harlan, Madison, Wis.) weighing between 250 and 350 g were individually identified by cage cards. Throughout the study animals were allowed access to food and water ad libitum.
Test compounds were administered via inhalation over 10 minutes in a whole-body exposure dosing chamber (R&S Molds, San Carlos, Calif.). The dosing chambers were arranged so that an aerosol was simultaneously delivered to 6 individual chambers from a central manifold. Guinea pigs were exposed to an aerosol of a test compound or vehicle (WFI). […] This was measured gravimetrically by comparing pre- and post-nebulization weights of the filled nebulizer.
The bronchoprotective effects of test compounds administered via inhalation were evaluated using whole body plethysmography at 1.5, 24, 48 and 72 hours post-dose.
Forty-five minutes prior to the start of the pulmonary evaluation, each guinea pig was anesthetized with an intramuscular injection of ketamine (43.75 mg/kg), xylazine (3.50 mg/kg) and acepromazine (1.05 mg/kg). […] The depth of anesthesia was monitored and adjusted if the animal responded to pinching of its paw or if the respiration rate was greater than 100 breaths/minute. […]

## CN(CCN1CCC(OC(=O)Nc2ccccc2-c2ccccc2)CC1)C(=O)c1ccc(CNCc2ccc(O)cc2)cc1 [Example 1, Biphenyl-2-ylcarbamic Acid 1-[2-({4-[(4-Hydroxybenzylamino)methyl]benzoyl}methylamino)ethyl]piperidin-4-yl Ester]
  PD2(50) for ACh-induced bronchoconstriction: less than 200 μg/mL
